The text below walks through data of patent US11110055B2, “Pharmaceutical formulations of tropomyosin related kinase (TRK) inhibitors” (Genzyme Corporation, priority 2014, dated 2021).

This data set in a line: Physical stability and aqueous dissolution of monohydrate versus anhydrate form. It counts as physicochemical.

Turning to `COc1ccc(COc2ccc(Cn3c(N)nc4cc(-c5cnn(C)c5)cnc43)cc2OC)cc1` [GZ389988, 3-(3-methoxy-4-((4-methoxybenzyl)oxy)benzyl)-6-(1-methyl-1H-pyrazol-4-yl)-3H-imidazo[4,5-b]pyridin-2-amine], the stability in solution entry was “relatively unstable in solution”.

In the case of `COc1ccc(COc2ccc(Cn3c(N)nc4cc(-c5cnn(C)c5)cnc43)cc2OC)cc1` [GZ389988A, 3-(3-methoxy-4-((4-methoxybenzyl)oxy)benzyl)-6-(1-methyl-1H-pyrazol-4-yl)-3H-imidazo[4,5-b]pyridin-2-amine monohydrate], the “aqueous dissolution compared to the anhydrate form” value was “slower aqueous dissolution” and the “physical stability compared to the anhydrate form” value was “better physical stability”.
